Target: T1, human NaV1.8 (Homo sapiens, UniProt Q9Y5Y9)
T1 construct: The following NaV1.8 recombinant cell line was used for recordings: HEK-NaV1.8 (NM 006514.1); expressed in transfected cells; host or cells: HEK (recombinant cell line HEK-NaV1.8)
Test: Electrophysiology: automated whole-cell voltage-clamp (patch clamp, Qube384) recordings of sodium currents in HEK-NaV1.8 cells
Type: cell-based
Settings: potency data either taken from inactivated or resting state, read-out: Potency category (human NaV1.8 IC50)
Method: Electrophysiology: Voltage-Clamp Recordings
The following NaV1.8 recombinant cell line was used for recordings: HEK-NaV1.8 (NM 006514.1) with in (NM 018400.3).
Sodium currents were measured using the patch clamp technique in the whole-cell configuration using the Qube384 (Sophion A/S, Copenhagen, Denmark) automated voltage clamp platform. “Multi hole” plates were used for the cell line expressing NaV1.8 while “single hole” plates were used for the recombinant cell lines expressing the other subtypes. Appropriate filters (for minimum seal resistance and minimum current size) and series resistance compensation (for high quality sodium channel recordings) were applied. Data was collected at ambient room temperature.
The recording extracellular solution contained (in mM): NaCl 145 mM, KCl 4 mM, CaCl2 2 mM, MgCl2 1 mM, HEPES 10 mM, Glucose 10 mM, pH 7.4 (NaOH). The intracellular recording solution contained (in mM): CsF 120 mM, CsCl 20 mM, NaCl 10 mM, EGTA 10 mM, HEPES 10 mM, pH 7.2 (CsOH). Currents were recorded at 25 kHz sampling frequency and filtered at 5 kHz. Series resistance compensation was applied at 65%.
Vehicle (VEH) is the control condition where cells are exposed to 0.3% DMSO without compound. All runs include VEH controls being exposed to the same voltage protocols to assess non-compound related phenomena such as run down and then used to isolate compound dependent effects on currents.
To check for state-dependence inhibition, the following voltage-sequence was applied every 20 seconds:
From a resting membrane potential of −120 mV, the first test pulse (P1; 20 ms to −10 mV) was applied to check for channels in the Resting State followed by a brief recovery (20 ms to −120 mV), then holding the membrane voltage to V112 (4 seconds at voltage to obtain half the channel at Rest and half Inactivated) with a subsequent second test pulse (P2; 20 ms to −10 mV) to check for channels in the Inactivated State, followed by another brief recovery (20 ms to −120 mV) and a final third test pulse (P3; 20 ms to −10 mV) to check for recovered channels.
To check for frequency-dependent inhibition, a 10 Hz protocol and a 20 Hz protocol were applied; namely,
From a resting membrane potential of −120 mV, 40-pulses (10 ms to −10 mV) was applied at 10 Hz (at 100 ms between pulses) and then at 20 Hz (at 50 ms between pulses).
Each parameter was recorded (P1, P2, P3, P40 from 10 Hz and P40 from 20 Hz) during a control period (lasting 5 minutes) when establishing the baseline and during compound period (lasting ˜12 minutes) when test compound (or vehicle) was applied. For each parameter, the value at the end of the compound period was normalized to the vehicle baseline; as follows
To adjust for any variance in the Na^+ current signal during the compound period (owing to cumulative inactivation independent of compound or shifts in biophysics over time), a dedicated segment of the recording wells in each 384 plate were dedicated to having only vehicle exposure. These vehicle-only recordings were used to correct for any apparent “run-up” or “run-down” in the experiment.
The adjusted inhibition was calculated as follows: […]
Percent inhibition was determined and IC50 values were calculated using a 4 parameter logistic model within XLFit Software (IDBS, Boston MA):
[formula] where A and B are the maximal and minimum inhibition respectively, C is the IC50 concentration and D is the (Hill) slope.
The potency data was either taken from inactivated or resting state.

T1 sequence (Q9Y5Y9 whole entry): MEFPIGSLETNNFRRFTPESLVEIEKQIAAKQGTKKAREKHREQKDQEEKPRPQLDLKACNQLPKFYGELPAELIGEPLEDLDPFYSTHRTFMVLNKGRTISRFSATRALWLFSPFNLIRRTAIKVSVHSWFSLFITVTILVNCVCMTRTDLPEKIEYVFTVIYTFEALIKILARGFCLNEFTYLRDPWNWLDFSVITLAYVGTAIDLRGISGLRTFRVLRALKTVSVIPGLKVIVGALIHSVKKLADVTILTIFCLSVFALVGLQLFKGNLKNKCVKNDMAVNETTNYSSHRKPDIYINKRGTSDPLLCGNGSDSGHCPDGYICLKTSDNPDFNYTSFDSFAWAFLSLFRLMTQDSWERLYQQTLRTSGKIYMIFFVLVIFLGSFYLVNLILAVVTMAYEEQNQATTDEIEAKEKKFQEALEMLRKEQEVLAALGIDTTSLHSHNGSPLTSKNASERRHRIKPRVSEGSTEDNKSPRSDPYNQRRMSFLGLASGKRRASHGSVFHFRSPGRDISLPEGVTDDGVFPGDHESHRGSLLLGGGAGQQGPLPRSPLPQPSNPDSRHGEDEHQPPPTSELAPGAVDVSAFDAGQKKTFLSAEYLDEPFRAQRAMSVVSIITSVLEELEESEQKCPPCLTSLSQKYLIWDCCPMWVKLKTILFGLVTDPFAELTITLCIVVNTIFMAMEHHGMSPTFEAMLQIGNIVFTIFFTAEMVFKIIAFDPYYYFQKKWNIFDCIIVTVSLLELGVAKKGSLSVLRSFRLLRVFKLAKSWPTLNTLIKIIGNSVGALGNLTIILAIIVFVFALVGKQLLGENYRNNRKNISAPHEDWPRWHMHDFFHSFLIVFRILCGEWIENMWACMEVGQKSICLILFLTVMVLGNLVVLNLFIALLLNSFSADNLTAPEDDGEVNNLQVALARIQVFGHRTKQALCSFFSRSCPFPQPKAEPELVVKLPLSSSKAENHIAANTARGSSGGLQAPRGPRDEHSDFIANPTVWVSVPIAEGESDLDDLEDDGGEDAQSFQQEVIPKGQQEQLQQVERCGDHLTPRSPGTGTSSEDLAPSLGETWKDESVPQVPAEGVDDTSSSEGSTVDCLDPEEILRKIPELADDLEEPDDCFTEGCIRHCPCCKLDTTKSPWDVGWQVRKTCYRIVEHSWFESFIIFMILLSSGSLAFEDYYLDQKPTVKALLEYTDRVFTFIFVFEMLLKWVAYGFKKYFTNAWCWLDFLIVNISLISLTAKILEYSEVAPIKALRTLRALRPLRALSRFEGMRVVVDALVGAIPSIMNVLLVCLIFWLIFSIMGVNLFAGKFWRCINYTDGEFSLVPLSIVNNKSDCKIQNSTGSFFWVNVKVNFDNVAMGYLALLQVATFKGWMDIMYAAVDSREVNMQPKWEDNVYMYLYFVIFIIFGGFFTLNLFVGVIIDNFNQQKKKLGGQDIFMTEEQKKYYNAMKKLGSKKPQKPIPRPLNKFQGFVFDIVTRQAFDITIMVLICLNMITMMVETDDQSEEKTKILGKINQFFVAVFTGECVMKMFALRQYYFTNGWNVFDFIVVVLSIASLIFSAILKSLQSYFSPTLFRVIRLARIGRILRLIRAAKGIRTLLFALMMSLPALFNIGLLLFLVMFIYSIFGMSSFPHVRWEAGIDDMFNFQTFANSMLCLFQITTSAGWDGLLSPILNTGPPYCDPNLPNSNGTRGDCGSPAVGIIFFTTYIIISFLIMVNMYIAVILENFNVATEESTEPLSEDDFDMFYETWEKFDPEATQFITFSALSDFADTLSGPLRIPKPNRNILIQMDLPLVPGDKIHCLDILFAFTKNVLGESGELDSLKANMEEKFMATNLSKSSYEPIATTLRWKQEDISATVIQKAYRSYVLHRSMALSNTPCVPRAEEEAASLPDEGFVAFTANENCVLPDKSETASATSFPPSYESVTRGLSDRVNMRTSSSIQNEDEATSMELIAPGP
T1 sequence (Q9NY72 23-215 partner): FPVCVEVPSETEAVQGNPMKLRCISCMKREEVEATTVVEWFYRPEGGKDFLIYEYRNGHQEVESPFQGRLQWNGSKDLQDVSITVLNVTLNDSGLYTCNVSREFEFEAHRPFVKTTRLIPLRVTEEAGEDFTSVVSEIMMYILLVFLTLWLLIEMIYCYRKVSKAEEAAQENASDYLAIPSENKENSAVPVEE

Compound `Cc1nn(CC2CCCCC2)c(C(=O)Nc2cccc(S(C)(=O)=O)c2)c1C` [SC-06, 2-(cyclohexylmethyl)-4,5-dimethyl-N-(3-methylsulfonylphenyl)pyrazole-3-carboxamide] has an IC50 of 100 to 1000 nM.
`Cc1nn(CC2CCCCC2)c(C(=O)Nc2cc[nH]c(=O)c2)c1C` [SC-07, 1-(cyclohexylmethyl)-3,4-dimethyl-N-(2-oxo-1,2-dihydropyridin-4-yl)-1H-pyrazole-5-carboxamide] was tested, and the IC50 was 1000 to 10000 nM.
Work on `CS(=O)(=O)c1cccc(NC(=O)c2c(F)cnn2CC2CCCCC2)c1` [SC-08, 2-(cyclohexylmethyl)-4-fluoro-N-(3-methylsulfonylphenyl)pyrazole-3-carboxamide] yielded an IC50 of 1000 to 10000 nM.
Compound `CS(=O)(=O)c1cccc(NC(=O)c2cc(C(F)F)nn2CC2CCCCC2)c1` [SC-09, 1-(cyclohexylmethyl)-3-(difluoromethyl)-N-(3-(methylsulfonyl)phenyl)-1H-pyrazole-5-carboxamide] has an IC50 of 100 to 1000 nM.
`CS(=O)(=O)c1cccc(NC(=O)c2c(C#N)cnn2CC2CCCCC2)c1` [SC-10, 4-cyano-1-(cyclohexylmethyl)-N-(3-(methylsulfonyl)phenyl)-1H-pyrazole-5-carboxamide] showed an IC50 of 100 to 1000 nM.
`Cc1cc(C(=O)Nc2cccc(S(C)(=O)=O)c2)n(CC2CCCCC2)n1` [SC-11, 2-(cyclohexylmethyl)-5-methyl-N-(3-methylsulfonylphenyl)pyrazole-3-carboxamide] showed an IC50 of 1000 to 10000 nM.
`CS(=O)(=O)c1cccc(NC(=O)c2cc(C3CC3)nn2CC2CCCCC2)c1` [SC-12, 2-(cyclohexylmethyl)-5-cyclopropyl-N-(3-methylsulfonylphenyl)pyrazole-3-carboxamide] was tested, and the IC50 was 100 to 1000 nM.
With `CS(=O)(=O)c1cc(NC(=O)c2c(C(F)(F)F)cnn2CC2CCC(F)(F)CC2)ccc1F` [SC-13, 2-[(4,4-difluorocyclohexyl)methyl]-N-(4-fluoro-3-methylsulfonylphenyl)-4-(trifluoromethyl)pyrazole-3-carboxamide] the IC50 was 100 to 1000 nM.
Work on `CS(=O)(=O)c1cc(NC(=O)c2c(C(F)(F)F)cnn2CC2CCC(F)(F)CC2)ccn1` [SC-14, 2-[(4,4-difluorocyclohexyl)methyl]-N-(2-methylsulfonylpyridin-4-yl)-4-(trifluoromethyl)pyrazole-3-carboxamide] yielded an IC50 of 1000 to 10000 nM.
`CS(=O)(=O)c1cncc(NC(=O)c2c(C(F)(F)F)cnn2CC2CCC(F)(F)CC2)c1` [SC-15, 2-[(4,4-difluorocyclohexyl)methyl]-N-(5-methylsulfonylpyridin-3-yl)-4-(trifluoromethyl)pyrazole-3-carboxamide] was tested, and the IC50 was 1000 to 10000 nM.
`CS(=O)(=O)c1cccc(NC(=O)c2c(C(F)(F)F)cnn2CC2CCC(F)(F)CC2)c1F` [SC-16, 2-[(4,4-difluorocyclohexyl)methyl]-N-(2-fluoro-3-methylsulfonylphenyl)-4-(trifluoromethyl)pyrazole-3-carboxamide] gave an IC50 of 1000 to 10000 nM.
`COc1cc(C(=O)Nc2cccc(S(C)(=O)=O)c2)n(CC2CCCCC2)n1` [SC-17, 2-(cyclohexylmethyl)-5-methoxy-N-(3-methylsulfonylphenyl)pyrazole-3-carboxamide] showed an IC50 of 100 to 1000 nM.
`CC(C)c1cnn(CC2CCCCC2)c1C(=O)Nc1cccc(S(C)(=O)=O)c1` [SC-18, 2-(cyclohexylmethyl)-N-(3-methylsulfonylphenyl)-4-propan-2-ylpyrazole-3-carboxamide] gave an IC50 of 1000 to 10000 nM.
For `CS(=O)(=O)c1cccc(NC(=O)c2c(C3CC3)cnn2CC2CCCCC2)c1` [SC-19, 2-(cyclohexylmethyl)-4-cyclopropyl-N-(3-methylsulfonylphenyl)pyrazole-3-carboxamide], the IC50 was 100 to 1000 nM.
In the case of `NC(=O)c1ccc(NC(=O)c2c(C(F)(F)F)cnn2CC2CCC(F)(F)CC2)cc1F` [SC-21, N-(4-carbamoyl-3-fluorophenyl)-1-[(4,4-difluorocyclohexyl)methyl]-4-(trifluoromethyl)-1H-pyrazole-5-carboxamide], the IC50 is reported as 1000 to 10000 nM.
`CS(=O)(=O)c1ccc(F)c(NC(=O)c2c(C(F)(F)F)cnn2CC2CCC(F)(F)CC2)c1` [SC-22, 1-[(4,4-difluorocyclohexyl)methyl]-N-(2-fluoro-5-methanesulfonylphenyl)-4-(trifluoromethyl)-1H-pyrazole-5-carboxamide] was tested, and the IC50 was 1000 to 10000 nM.
`CS(=O)(=O)c1cccc(NC(=O)c2c(C(F)(F)F)cnn2CC2CCCC(F)(F)C2)c1` (stereo not drawn) [SC-23, 2-[(3,3-difluorocyclohexyl)methyl]-N-(3-methylsulfonylphenyl)-4-(trifluoromethyl)pyrazole-3-carboxamide] was tested, and the IC50 was 100 to 1000 nM.
`CS(=O)(=O)c1cccc(NC(=O)c2c(C(F)(F)F)cnn2CC2CCC2)c1` [SC-24, 2-(cyclobutylmethyl)-N-(3-methylsulfonylphenyl)-4-(trifluoromethyl)pyrazole-3-carboxamide] was tested, and the IC50 was 100 to 1000 nM.
`CS(=O)(=O)c1cccc(NC(=O)c2c(C(F)(F)F)cnn2CC2CCCC2)c1` [SC-25, 2-(cyclopentylmethyl)-N-(3-methylsulfonylphenyl)-4-(trifluoromethyl)pyrazole-3-carboxamide] showed an IC50 of 100 to 1000 nM.
With `CS(=O)(=O)c1cccc(NC(=O)c2c(C(F)(F)F)cnn2CC2CCCCC2)c1` [SC-26, 2-(cyclohexylmethyl)-N-(3-methylsulfonylphenyl)-4-(trifluoromethyl)pyrazole-3-carboxamide] the IC50 was at most 100 nM.
`CS(=O)(=O)c1cccc(NC(=O)c2c(C(F)(F)F)cnn2CC2CCCCCC2)c1` [SC-27, 2-(cycloheptylmethyl)-N-(3-methylsulfonylphenyl)-4-(trifluoromethyl)pyrazole-3-carboxamide] was tested, and the IC50 was at most 100 nM.
With `CS(=O)(=O)c1cccc(NC(=O)c2c(C(F)(F)F)cnn2CC2CCOCC2)c1` [SC-28, N-(3-methylsulfonylphenyl)-2-(oxan-4-ylmethyl)-4-(trifluoromethyl)pyrazole-3-carboxamide] the IC50 was 1000 to 10000 nM.
For `CC(C1CCCCC1)n1ncc(C(F)(F)F)c1C(=O)Nc1cccc(S(C)(=O)=O)c1` (stereo not drawn) [SC-29, 2-(1-cyclohexylethyl)-N-(3-methylsulfonylphenyl)-4-(trifluoromethyl)pyrazole-3-carboxamide], the IC50 was 100 to 1000 nM.
In the case of `O=C(Nc1cc[nH]c(=O)c1)c1c(C(F)(F)F)cnn1CC1CCCCC1` [SC-30, 1-(cyclohexylmethyl)-N-(2-oxo-1,2-dihydropyridin-4-yl)-4-(trifluoromethyl)-1H-pyrazole-5-carboxamide], the IC50 is reported as 100 to 1000 nM.
Compound `O=C(Nc1ccnc(O)c1)c1c(C(F)(F)F)cnn1CC1CCCCCC1` [SC-31, 2-(cycloheptylmethyl)-N-(2-hydroxypyridin-4-yl)-4-(trifluoromethyl)pyrazole-3-carboxamide] has an IC50 of 100 to 1000 nM.
In the case of `CC(C1CCCCC1)n1ncc(C(F)(F)F)c1C(=O)Nc1ccnc(O)c1` (stereo not drawn) [SC-32, 2-(1-cyclohexylethyl)-N-(2-hydroxypyridin-4-yl)-4-(trifluoromethyl)pyrazole-3-carboxamide], the IC50 is reported as 1000 to 10000 nM.
Compound `NS(=O)(=O)c1cccc(NC(=O)c2c(C(F)(F)F)cnn2CC2CCCCC2)c1` [SC-33, 2-(cyclohexylmethyl)-N-(3-sulfamoylphenyl)-4-(trifluoromethyl)pyrazole-3-carboxamide] has an IC50 of at most 100 nM.
Work on `NC(=O)c1cc(NC(=O)c2c(C(F)(F)F)cnn2CC2CCCCC2)ccc1F` [SC-35, N-(3-carbamoyl-4-fluorophenyl)-1-(cyclohexylmethyl)-4-(trifluoromethyl)-1H-pyrazole-5-carboxamide] yielded an IC50 of at most 100 nM.
`CS(=O)(=O)n1cc(NC(=O)c2c(C(F)(F)F)cnn2CC2CCCCC2)cn1` [SC-36, 2-(cyclohexylmethyl)-N-(1-methylsulfonylpyrazol-4-yl)-4-(trifluoromethyl)pyrazole-3-carboxamide] gave an IC50 of 100 to 1000 nM.
`Cc1cnn(CC2CCCCC2)c1C(=O)Nc1cccc(S(C)(=O)=O)c1` [SC-37, 2-(cyclohexylmethyl)-4-methyl-N-(3-methylsulfonylphenyl)pyrazole-3-carboxamide] gave an IC50 of 1000 to 10000 nM.

From patent US11999699B2, “Substituted pyrazole amides” (GRUENENTHAL GMBH, priority 2021, dated 2024)
